Legend:
TM4SF5-expressing cells = test: Immunofluorescence of focal adhesions and actin, TM4SF5-expressing cells; type: cell-based; conditions: FIG. 15
Protocol: (§1) Cells were treated with DMSO or 20 μM TA for 24 hrs. Then, the cells were plated on 10 μg/ml fibronectin-precoated coverslips and incubated for 2 hrs in the presence of DMSO or 20 μM TA. Subsequently, immunofluorescence staining was performed using pY^397 FAK, pY^118 paxillin, and actin, as described in the literature (Lee, S. Y. et al., Focal adhesion and actin organization by a cross-talk of TM4SF5 with integrin α2 are regulated by serum treatment, Exp Cell Res, 312, pp. 2983-99, 2006). Mounted samples were visualized by a fluorescent microscope (BX51, Olympus, Japan).

TM4SF5-null cells = test: Immunofluorescence of focal adhesions and actin, TM4SF5-null cells; type: cell-based; conditions: 20 μM TA
Protocol: as §1

[1] = system: TM4SF5-expressing cells (SNU449Tp, SNU449T16); test: Degree of adhesion on fibronectin-precoated dishes, TM4SF5-expressing cells; type: cell-based; conditions: 20 μM TA 24 hr, reseeded on fibronectin 1 hr
Protocol: (§2) Thus, it could be thought that TA treatment induces anoikis of TM4SF5-expressing cells. To examine whether TA treatment affected cellular adhesion, the following procedure was performed prior to analysis of TA-meditated cell death, as described in the literature (Yang, X. et al., Palmitoylation supports assembly and function of integrin-tetraspanin complexes, J Cell Biol, 167, pp. 1231-40, 2004).
(§3) Cells were treated with 20 μM TA for 24 hr, and the floating cells were collected and reseeded on fibronectin-precoated dishes for 1 hr before determination of the degree of adhesion.

[2] = system: TM4SF5-null cells (SNU449P, SNU449Cp); test: Degree of adhesion on fibronectin-precoated dishes, TM4SF5-null cells; type: cell-based; conditions: 20 μM TA 24 hr, reseeded on fibronectin 1 hr
Protocol: as §2, §3

[3] = system: SNU449Tp cells expressing TM4SF5; test: Number of floating cells, SNU449Tp; type: cell-based; conditions: TA versus DMSO
Source text: (§4) FIG. 17 is a graph showing the number of floating SNU449Cp and SNU449Tp cells, after tiarellic acid (TA) treatment for various time periods;

[4] = system: SNU449Cp cells expressing no TM4SF5; test: Number of floating cells, SNU449Cp; type: cell-based; conditions: TA versus DMSO
Source text: as §4

[5] = system: Akt and caspase-3 in TM4SF5-expressing SNU449T16 cells; test: Western blotting of cell survival and death-related signaling molecules; type: cell-based; conditions: various time periods
Protocol: FIG. 18 is the result of Western blotting of cell survival and death-related signaling molecules, after tiarellic acid (TA) treatment for various time periods;
Whole cell lysates from cells under diverse experimental conditions were prepared, as described in the literature (Lee, S. Y. et al., Focal adhesion and actin organization by a cross-talk of TM4SF5 with integrin α2 are regulated by serum treatment, Exp Cell Res, 312, pp. 2983-99, 2006). For example, cells were subjected to electroporation (950 μF, 250 V) with a control GFP, wild-type focal adhesion kinase (FAK), paxillin, p130Cas cDNA. One day after electroporation, cells were treated with TA (20 μM) for the indicated periods. Cells cultured normally or treated with TA at different concentrations for the indicated periods were harvested using RIPA buffer. Control or tumor tissues from nude mice were frozen immediately after surgery using liquid N2. Tissues in the liquid N2 was homogenized using a mortar and pestle, and extracted using 0.1% SDS containing RIPA buffer. […]

[6] = system: SNU449Tp and SNU449T16 expressing TM4SF5; test: Analysis of cellular DNA content (sub-G1), TM4SF5-expressing cells; type: cell-based; conditions: 20 μM TA, 24 hr
Source text: FIG. 19 is the result of analyzing cellular DNA content, after tiarellic acid (TA) treatment;

[7] = system: SNU449T16 cells introduced with GFP control, wild-type FAK, paxillin or p130Cas cDNA; test: TA-mediated effects under overexpression of focal adhesion molecules; type: cell-based
Protocol: (§5) Whole cell lysates from cells under diverse experimental conditions were prepared, as described in the literature (Lee, S. Y. et al., Focal adhesion and actin organization by a cross-talk of TM4SF5 with integrin α2 are regulated by serum treatment, Exp Cell Res, 312, pp. 2983-99, 2006). For example, cells were subjected to electroporation (950 μF, 250 V) with a control GFP, wild-type focal adhesion kinase (FAK), paxillin, p130Cas cDNA. One day after electroporation, cells were treated with TA (20 μM) for the indicated periods. Cells cultured normally or treated with TA at different concentrations for the indicated periods were harvested using RIPA buffer. Control or tumor tissues from nude mice were frozen immediately after surgery using liquid N2. Tissues in the liquid N2 was homogenized using a mortar and pestle, and extracted using 0.1% SDS containing RIPA buffer. Standard Western blots of lysates were performed by using antibody against phospho-Y^397, Y^407, Y^577, Y^861, Y^925 FAK (BioSource International, Inc., Camarillo, Calif.), phospho-Y^416Src, c-Src, p15^INK4B, p16^INK4A (Santa Cruz Biotech., Santa Cruz, Calif.), FAK, p130Cas, paxillin, pY^118paxillin, active caspase-3 (BD Transduct. Lab., San Jose, Calif.), α-tubulin (Sigma, St Louis, Mo.), phopsho-S^473, or T^308Akt, Akt, phospho-Erk1/2, Erk1/2 (Cell Signaling Tech., Danvers, Mass.), and TM4SF5 (homemade).
To evaluate whether overexpression of focal adhesion molecules such as focal adhesion kinase (FAK), paxillin, and p130Cas would block the effects of TA treatment, the following procedure was performed as described in the literature (Lee, S. Y. et al., Focal adhesion and actin organization by a cross-talk of TM4SF5 with integrin α2 are regulated by serum treatment, Exp Cell Res, 312, pp. 2983-99, 2006).
To explore this, each cDNA was introduced into SNU449T16 cells via electroporation. After 1 day, the cells were treated with 20 μM TA for 24 hrs to obtain lysates. […] Therefore, the TA-mediated effects on TM4SF5-expressing cells could be overcome to a certain degree by overexpression of focal adhesion molecules. On the other hand, changes in Erk1/2 activation were not observed under each experimental condition, thereby understanding TA-mediated effects on signal transduction in this experimental system.

[8] = system: TM4SF5-expressing SNU449T16 cells tumors; test: TM4SF5-mediated tumor formation in nude mice; type: in vivo; conditions: for tumor volumes decreased to: 30 days
Protocol: (§6) 4-5 week old female nude mice (BALB/cAnNCrjBgi-nu) were purchased from Orient. Co. Ltd. (Seongnam, Korea). The mice were housed in a specific pathogen-free room under controlled temperature and humidity. All animal procedures were performed in accordance with the procedures in Seoul National University Laboratory Animal Maintenance Manual and with IRB agreement. Mice aged 5-6 weeks were injected subcutaneously with 5×10^6 viable SNU449Cp or SNU449T16 cells. Tumor volumes were measured with a caliper and calculated using the following Mathematical Formula 1. When the tumor volume reached 200 mm^3, mice were injected intraperitoneally with 3 mg/kg or 30 mg/kg (body weight) of tiarellic acid (TA) every other day for 30 days. (Width×Length^2)/2 [Mathematical Formula 1]
Width: minimal diameter (mm)
Length: maximal diameter (mm)
(§7) To evaluate whether tiarellic acid (TA) administration might interfere with TM4SF5 mediated tumor formation in nude mice, the following experiment was performed as described in the literature (Lee S-A et al., TM4SF5-mediated transmodulation between cytosolic p27Kip1 and Rho GTPases and epithelial-mesenchymal transition cause loss of contact inhibition, Cancer Cell, 2007).

[9] = system: Akt, p15INK4B, p16INK4A, caspase-3 in TM4SF5-mediated tumor tissue; test: Western blot and immunohistochemical staining of tumor tissue from nude mice; type: in vivo
Protocol: as §5, §6, §7

[10] = Body weight and toxic side effects in tumor-bearing nude mice; type: in vivo; conditions: 3 or 30 mg/kg i.p. every other day, 30 days
Protocol: as §6, §7

[11] = Western blot, TA administration

C=C(C)C1CC[C@]2(C)CC[C@]3(C(=O)O)C(CCC4[C@@]5(C)CC[C@H](O)[C@@](C)(CO)C5CC[C@]43C)C12 (stereo partly drawn) [tiarellic acid (TA), 3,23-dihydroxy-20(29)-lupen-27-oic acid]
actin organization and stress fibers (TM4SF5-expressing cells): abnormal actin organization with insignificant stress fibers | focal adhesion formation (TM4SF5-null cells): did not affect | adhesion [1]: significantly reduced adhesions | adhesion [2]: not affected | number of floating cells [3]: increased | number of floating cells [4]: did not affect | Akt and caspase-3 activity [5]: Akt inactivation and caspase-3 activation | sub-G1 populations (cellular DNA content) [6]: significant sub-G1 populations | TA-mediated increases in the sub-G1 population under overexpression ([7]; SNU449T16 overexpressing focal adhesion molecules): blocked | focal adhesion molecule and caspase-3 activity ([7]; SNU449T16 with control plasmid (GFP), 20 μM TA): time-dependent inactivation of focal adhesion molecules and activation of caspase-3 | TA-mediated effects under overexpression ([7]; SNU449T16 with wild-type FAK, paxillin, or p130Cas, 20 μM TA): certain degrees of blocking | changes in Erk1/2 activation ([7]; each experimental condition): not observed | tumor volumes decreased to ([8]; 3 mg/kg body weight i.p. every other day): 46.0% | tumor volumes decreased to ([8]; 30 mg/kg body weight i.p. every other day): 22.1% | TM4SF5-mediated tumor formation ([8]; intraperitoneally every other day for 30 days, established tumors ~200 mm^3): decreased | Akt activation in tumor tissue [9, 11]: decreased | caspase-3 activation in tumor tissue [9, 11]: enhanced | p15INK4B or p16INK4A CKI levels in tumor tissue [9, 11]: increased | immunohistochemical staining for active caspase-3 ([9]; tumor tissue from TA-treated mice): positive | body weight [10]: increased normally | toxic side effects [10]: no significant toxic side effects

— US8299049B2, “Compositions comprising an extract of Tiarella polyphylla or compounds isolated therefrom for preventing and treating cancer diseases” (Korea Institute of Bioscience and Biotechnology, priority 2007, dated 2012)
